Among the data in patent US8273769B2, “Phenoxy acetic acid derivatives” (Merck Serono SA, priority 2009, dated 2012) are IC50, EC50 and Emax values, retold here.

pEC50, pIC50: −log10 of the molar value.

In assay [1] the target is T1, CRTH2 (Homo sapiens, UniProt Q9Y5Y4).
T1 sequence (Q9Y5Y4 1-395): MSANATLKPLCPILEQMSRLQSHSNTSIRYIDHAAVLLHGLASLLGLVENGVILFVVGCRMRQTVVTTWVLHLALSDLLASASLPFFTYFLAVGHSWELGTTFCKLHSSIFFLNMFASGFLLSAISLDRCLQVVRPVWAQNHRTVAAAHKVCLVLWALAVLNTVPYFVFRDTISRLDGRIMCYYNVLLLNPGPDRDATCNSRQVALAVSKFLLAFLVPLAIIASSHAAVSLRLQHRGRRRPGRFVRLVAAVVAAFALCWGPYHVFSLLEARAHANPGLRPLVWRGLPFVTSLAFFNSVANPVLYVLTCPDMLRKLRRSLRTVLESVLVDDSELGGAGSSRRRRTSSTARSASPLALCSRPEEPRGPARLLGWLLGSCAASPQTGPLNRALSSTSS
The assay is described as follows: Radioligand binding Scintillation Proximity Assay ([3H]PGD2, hCRTH2-CHO cell membranes). On the set-up: host or cells: CHO cells. The conditions noted are these: 1.5 nM [3H]PGD2, hCRTH2-CHO cell membranes, SPA. The gist of the method:
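SPA competition binding at room temperature, 90 min with agitation: 1.5 nM [3H]PGD2, 10-50 μg/ml hCRTH2-CHO membrane protein, WGA SPA beads, HEPES pH 7.4 with 10 mM MnCl2, 1% DMSO. Non-specific binding defined with 10 μM PGD2; scintillation counting.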
On the technique in general: SPA uses beads or plates that emit light when radiolabelled molecules are held near them.

Assay [2] deals with T1, CRTH2. The assay is described as follows: [35S]GTPγS binding assay (CHO-CRTH2 cell membranes). On the set-up: expressed in transfected cells; host or cells: CHO-CRTH2 cells. In kind it is biochemical. The conditions noted are these: for pIC50: antagonist mode, fixed concentration of PGD2 (EC80); for Emax: inverse agonists, 100% of Emax = activity with 1 μM PGD2. The procedure:
Adherent CHO cells expressing hCRTH2 (Euroscreen, Belgium) were cultured in 225 cm^2 cell culture flasks (Corning, USA) in 30 ml of medium. After two rinses of phosphate buffered saline (PBS), cells were harvested in 10 ml of PBS containing 1 mM EDTA, centrifuged at 500×g for 5 min at 4° C. and frozen at −80° C. The pellet was re-suspended in 50 mM Tris-HCl, pH 7.4, 2 mM EDTA, 250 mM Sucrose, containing protease inhibitor cocktail tablets, (Complete EDTA-free, Roche, Germany) and incubated 30 min at 4° C. Cells were disrupted by nitrogen cavitation (Parr Instruments, USA) at 4° C. (800 p.s.i. for 30 min), and centrifuged at 500×g for 10 min at 4° C. Pellet containing nuclei and cellular debris was discarded and supernatant was centrifuged 60 min at 4° C. at 45000×g. Membrane pellet was re-suspended in storage buffer (10 mM HEPES/KOH pH 7.4, 1 mM EDTA, 250 mM sucrose, protease inhibitor cocktail tablets) using Dounce homogenization and frozen in liquid nitrogen, and stored at −80° C.
The [^35S]GTPγS assay measures the increase in guanine nucleotide exchange at G-proteins in cell membranes, resulting from agonist (PGD2) binding to CRTH2. This process can be monitored in vitro by incubating cell membranes containing G-proteins and CRTH2 with GDP and [^35S]GTPγS, a radiolabeled, hydrolysis-resistant analogue of GTP (see, Harrison et al., Life Sciences 74, 489-508, 2003). The addition of a Compounds of Formula (I) results in binding to CRTH2 and thus in an inhibition of agonist binding, which can be monitored as inhibition of the stimulation of GTP/GDP exchange.
Briefly, Compounds of Formula (I) are incubated in 96-well scintillating white polystyrene plates (Perkin Elmer, USA) in a final volume of 200 μl containing 20 mM HEPES/KOH pH 7.4, 3 mM MgCl2, 10 μg/ml Saponin, 5 μM GDP, 75 mM NaCl and 2% of dimethylsulphoxide (DMSO). Reaction is triggered by the addition of 5-10 μg of CHO-CRTH2 cell membranes and 0.15 nM [^35S]GTPγS. After 60 min incubation at 30° C., reaction is stopped by centrifugation at 700×g, at 4° C. for 10 minutes and supernatant is removed. The radioactivity coming from the [^35S]GTPγS bound on centrifuged cell membranes is recorded using a 1450 Micro-beta scintillation counter. For IC50 determination, increasing concentrations of compounds are incubated in presence of a fixed concentration of PGD2 (EC80). For EC50 measurements, compounds are incubated without addition of PGD2. Basal [^35S]GTPγS activity is determined without addition of any ligands or compounds. 100% [^35S]GTPγS activity is measured by the addition of 1 μM of PGD2.
(In general: GTPγS resists hydrolysis and so accumulates on activated G proteins.)

For assay [3], the target named is T1, CRTH2. The assay is described as follows: Cellular Dielectric Spectroscopy (CHO-CRTH2 cells). It is filed as cell-based. On the set-up: expressed in transfected cells; host or cells: CHO-CRTH2 cells. The conditions noted are these: for pIC50: antagonist mode, fixed concentration of PGD2 (EC80); for pEC50 / Emax: partial agonists, agonist activity without PGD2. The procedure: Cellular Dielectric Spectroscopy (CDS) is a label-free technology based on the measurement of complex impedance changes (delta Z or dZ). Impedance (Z) is related to the ratio of voltage to current as described by Ohm's law (Z=V/I). In order to measure the changes in impedance that occur in response to receptor stimulation, mammalian cells are seeded onto a custom 96-well microliter plate that contains electrodes at the bottom of each well. Key contributors to the impedance measurements are changes in cell-substrate adherence, changes in cell shape and volume, and changes in cell-cell interactions. These factors individually or collectively affect the flow of current, influencing the magnitude and characteristics of the signal measured. G-protein coupled receptors ligand-induced activity can be measured using this technology and specific G protein coupling can be identified. Activities of reference agonist and antagonist molecules of CRTH2 have been measured using this assay and similar results were obtained compared to different functional assays.
CHO-CRTH2 cells are cultured in HAM's F12 (Lonza, Switzerland) supplemented with 10% foetal calf serum (PAA, Australia) and 400 μg/ml Geneticin. 100000 cells/well are seeded in standard 96W Microplates (MDS Analytical Technologies) and incubated at 37° C. in 5% CO2 for 24 hours. Cells are washed twice with 135 μl of cell key buffer (Hank's Balanced Salt Solution 1× (HBSS) (Invitrogen) supplemented with 10 mM HEPES pH 7.4 in presence of 1% DMSO). For EC50 determination. 15 μl of increasing concentration of Compounds of Formula (I) diluted in cell key buffer are added to the cells and agonist activity is then recorded for 25 minutes. […] Results are expressed as the amplitude between the highest and the lowest signal produced (max-min). Basal and maximum activities are measured, respectively in absence or presence of PGD2 (EC80).

For `O=C(O)COc1ccc(Cl)cc1C#Cc1cccc(Cl)c1` [Example 3, {4-chloro-2-[(3-chlorophenyl)ethynyl]phenoxy}acetic acid], the pIC50 in assay [1] is 7.59; in assay [2] it was 6.98.
For `O=C(O)COc1ccc(Cl)cc1C#Cc1ccccc1Cl` [Example 4, {4-chloro-2-[(2-chlorophenyl)ethynyl]phenoxy}acetic acid], the pIC50 is 7.82 in assay [1] and 7.43 in assay [2].
For `O=C(O)COc1ccc(Cl)cc1C#Cc1cccc(S(=O)(=O)CCO)c1` [Example 20, [4-chloro-2-({3-[(2-hydroxyethyl)sulfonyl]phenyl}ethynyl)phenoxy]acetic acid] the same measures were 7.92 and 6.54.
The like results for `CCCS(=O)(=O)c1cccc(C#Cc2cc(C#N)ccc2OCC(=O)O)c1` [Example 32, (4-cyano-2-{[3-(propylsulfonyl)phenyl]ethynyl}phenoxy)acetic acid] were, in that order, 7.60 and 6.73.
With `CCCS(=O)(=O)c1ccc(C)c(C#Cc2cc(C#N)ccc2OCC(=O)O)c1` [Example 40, (4-cyano-2-{[2-methyl-5-(propylsulfonyl)phenyl]ethynyl}phenoxy)acetic acid], the results for the pIC50 in assay [1] and in assay [2] were 8.05 and 7.41, respectively.
Turning to `CCCc1ccncc1C#Cc1cc(Cl)ccc1OCC(=O)O` [Example 42, {4-chloro-2-[(4-propylpyridin-3-yl)ethynyl]phenoxy}acetic acid], the pIC50 in assay [3] was 7.60; in assay [1] it was 8.30; in assay [2], 8.00.
Turning to `CC(C)Cc1ccncc1C#Cc1cc(Cl)ccc1OCC(=O)O` [Example 43, {4-chloro-2-[(4-isobutylpyridin-3-yl)ethynyl]phenoxy}acetic acid], the pIC50 in assay [3] was 6.57; in assay [1], 8.22.
For `Cc1ccc(S(=O)(=O)CC(C)C)cc1C#Cc1cc(Cl)ccc1OCC(=O)O` [Example 53, (4-chloro-2-{[5-(isobutylsulfonyl)-2-methylphenyl]ethynyl}phenoxy)acetic acid] the same measures were 7.30 and 8.30.
The like results for `Cc1ccc(S(=O)(=O)CCCO)cc1C#Cc1cc(Cl)ccc1OCC(=O)O` [Example 54, [4-chloro-2-({5-[(3-hydroxypropyl)sulfonyl]-2-methylphenyl}ethynyl)phenoxy]acetic acid] were, in that order, 7.43 and 8.00.
Consider `CCCS(=O)(=O)c1cccc(C#Cc2cc(C(F)(F)F)ccc2OCC(=O)O)c1` [Example 55, [2-{[3-(propylsulfonyl)phenyl]ethynyl}-4-(trifluoromethyl)phenoxy]acetic acid], for which, in assay [3], the pEC50 is 7.62 and the Emax worked out at 62%. Besides, in assay [1], the pIC50 was 7.89.
Consider `CN(C)S(=O)(=O)c1cncc(C#Cc2cc(C#N)ccc2OCC(=O)O)c1` [Example 67, [4-cyano-2-({5-[(dimethylamino)sulfonyl]pyridin-3-yl}ethynyl)phenoxy]acetic acid], for which the pIC50 in assay [3] was 7.47; in assay [1], 7.07.
Regarding `CC(C)c1ccc(S(C)(=O)=O)cc1C#Cc1cc(Cl)ccc1OCC(=O)O` [Example 70, (4-chloro-2-{[2-isopropyl-5-(methylsulfonyl)phenyl]ethynyl}phenoxy)acetic acid], the results for the pIC50 in assay [3] and in assay [1] were 7.68 and 8.15, respectively.
For `CC(C)c1ccc(S(C)(=O)=O)cc1C#Cc1cc(C#N)ccc1OCC(=O)O` [Example 71, (4-cyano-2-{[2-isopropyl-5-(methylsulfonyl)phenyl]ethynyl}phenoxy)acetic acid] the same measures were 7.82 and 7.80.
The like results for `Cc1ccc(S(=O)(=O)NC(C)C)cc1C#Cc1cc(Cl)ccc1OCC(=O)O` [Example 86, [4-chloro-2-({5-[(isopropylamino)sulfonyl]-2-methylphenyl}ethynyl)phenoxy]acetic acid] were, in that order, 6.93 and 8.30.
For `Cc1ccc(S(=O)(=O)N(C)C(C)C)cc1C#Cc1cc(Cl)ccc1OCC(=O)O` [Example 87, {4-chloro-2-[(5-{[isopropyl(methyl)amino]sulfonyl}-2-methylphenyl)ethynyl]phenoxy}acetic acid] the same measures were 7.08 and 8.22.
For the compound `CCCS(=O)(=O)c1cccc(C#Cc2cc(-c3ccccc3)ccc2OCC(=O)O)c1` [Example 131, [(3-{[3-(Propylsulfonyl)phenyl]ethynyl}biphenyl-4-yl)oxy]acetic acid], in assay [3], the negative logarithm of the EC50 (pEC50) was 7.13 and the Emax was 68%. The pIC50 in assay [1] was 7.62.
The compound `CS(=O)(=O)c1cc(C#Cc2cc(Cl)ccc2OCC(=O)O)ccc1-c1ccccc1` [Example 140, (4-chloro-2-{[2-(methylsulfonyl)biphenyl-4-yl]ethynyl}phenoxy)acetic acid] had a pIC50 in assay [1] of 8.22. Also, in assay [2], the pIC50 was 7.43 and the Emax is -11%.
Consider `CC(=O)Nc1ccc(C#Cc2cc(Cl)ccc2OCC(=O)O)cc1` [Example 152, (2-{[4-(acetylamino)phenyl]ethynyl}-4-chlorophenoxy)acetic acid], for which, in assay [1], the pIC50 is 7.55. Besides, the Emax in assay [2] is -13%.
As for `CCCS(=O)(=O)c1ccc(F)c(C#Cc2cc(Cl)ccc2OC(C)C(=O)O)c1` (stereo not drawn) [Example 168, 2-(4-chloro-2-{[2-fluoro-5-(propylsulfonyl)phenyl]ethynyl}phenoxy)propanoic acid], the pIC50 in assay [1] was 8.52; in assay [2] it was 8.05. For the same compound, the Emax in assay [2] is -13%.
For `CCCS(=O)(=O)c1ccc(C)c(C#Cc2cc(Cl)ccc2OC(C)C(=O)O)c1` (stereo not drawn) [Example 173, 2-(4-chloro-2-{[2-methyl-5-(propylsulfonyl)phenyl]ethynyl}phenoxy)propanoic acid], the pIC50 was 9.00 in assay [1] and 8.15 in assay [2].

In general, pIC50 refers to the IC50 on a negative log10 scale, so that one unit is a factor of ten. For orientation: pEC50 means the negative decadic logarithm of the EC50, by convention in mol/L. The term Emax denotes the greatest response seen or fitted, relative to the assay's reference.
